Data on one molecule can be found in publication PMC8330100, “Similarities and differences in the localization, trafficking, and function of P-glycoprotein in MDR1-EGFP-transduced rat versus human brain capillary endothelial cell lines” (Fluids and Barriers of the CNS, 2021).

Each structure is given as a SMILES string.

The subject of this test is Pgp in primary rBCECs. Put plainly: Rhodamine 123 uptake/accumulation assay, primary rBCECs. The format is cell-based, rat. An excerpt:
The RBE4 and hCMEC/D3 cell lines used here are immortalized, which has the advantage that these cells are stable for several passages and may yield a large number of endothelial cells with the same genetic and phenotypical characteristics. The immortalization status, however, causes several alterations as compared to the native original cell type, including low junctional tightness of cell monolayers and reduced expression of efflux transporters such as Pgp. Therefore, for comparison with the MDR1-EGFP transduced rat RBE4 cells, experiments were also performed with primary cultured rat brain capillary endothelial cells (rBCECs). As described by us previously, rBCECs were prepared following a protocol by Régina et al. and Perrière et al. from 2 to 3 weeks old Wistar rats (obtained from Charles River; Sulzfeld, Germany). All animals were treated according to protocols evaluated and approved by the ethical committee of our university. In short, meninges were removed from cerebral cortices in phosphate-buffered saline (PBS) with 1% penicillin (100 U/mL)/streptomycin (100 μg/mL) (Biochrom AG) on ice. Subsequently, cortices were mechanically dissociated with scalpels. […]
The functionality of Pgp in RBE4-WT, RBE4-MDR1-EGFP, hCMEC/D3-WT, hCMEC/D3-MDR1-EGFP cells, and primary rBCECs was analyzed by measuring the uptake of the fluorescent Pgp substrate Rho123 (Sigma-Aldrich). […] Intracellular Rho123 concentration was determined by cell lysis in standard lysis buffer (25 mM Tris, 50 mM NaCl, 0.5% (w/v) sodium deoxycholate, 0.5% (w/v) Triton X-100) and measurement of fluorescence intensity with the FLUOstar OPTIMA (ex.: 485 nm, em.: 520 nm; BMG Labtech). Protein concentrations were determined using a BCA assay kit (Thermo Fisher Scientific). Rho123 uptake was obtained for each condition in triplicates and calculated as absolute fluorescence per mg protein. Additionally, Pgp functionality was expressed as multidrug resistance activity factor (MAF) as described by Huber et al.. […]

On to `COC(=O)c1ccccc1-c1c2ccc(=N)cc-2oc2cc(N)ccc12` [Rho123, rhodamine 123], for which the “intracellular Rho123 accumulation” value (Rho123 5 µM, 2 h, without tariquidar) is 56,482 ± 2456 absolute fluorescence per mg p. The “multidrug resistance activity factor (MAF) from intracellular Rho123 accumulation” value (with vs without tariquidar 0.5 µM) was 61.2% ± 2.7.
